Assay results taken from patent US10640506B2, “Cyclobutyl substituted pyrrolopyridine and pyrrolopyrimidines derivatives as JAK inhibitors” (Incyte Corporation, priority 2010, dated 2020).

What was measured:
[1] = target: human JAK1 (a.a. 837-1142) (Homo sapiens, UniProt P23458); experiment: In vitro JAK kinase assay (HTRF, phosphorylation of biotinylated peptide), JAK1; format: biochemical; settings: Table F; 1 mM ATP
Method in brief: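 His-tagged human JAK1 catalytic domain (a.a. 837-1142), baculovirus/insect-cell expressed, phosphorylates a biotinylated peptide for 1 h at room temperature. Reaction stopped with EDTA; product detected by HTRF (SA-APC, Eu-Py20, 40 min binding). IC50 reported as ranges.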

JAK2 (a.a. 828-1132) = target: T1, JAK2 (a.a. 828-1132) (Homo sapiens, UniProt O60674); experiment: In vitro JAK kinase assay (HTRF, phosphorylation of biotinylated peptide), JAK2; format: biochemical; settings: Table F; 1 mM ATP
T1 construct: JAK2 (a.a. 828-1132); His tag (N)
Method in brief: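 His-tagged catalytic domains of human JAK1 (a.a. 837-1142) and JAK2 (a.a. 828-1132), baculovirus-expressed, phosphorylate a biotinylated peptide for 1 hour at room temperature. Stopped with EDTA; detected by HTRF using SA-APC and Eu-Py20 antibody after 40 min binding; values binned as ranges.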

T1 sequence (O60674 828-1132): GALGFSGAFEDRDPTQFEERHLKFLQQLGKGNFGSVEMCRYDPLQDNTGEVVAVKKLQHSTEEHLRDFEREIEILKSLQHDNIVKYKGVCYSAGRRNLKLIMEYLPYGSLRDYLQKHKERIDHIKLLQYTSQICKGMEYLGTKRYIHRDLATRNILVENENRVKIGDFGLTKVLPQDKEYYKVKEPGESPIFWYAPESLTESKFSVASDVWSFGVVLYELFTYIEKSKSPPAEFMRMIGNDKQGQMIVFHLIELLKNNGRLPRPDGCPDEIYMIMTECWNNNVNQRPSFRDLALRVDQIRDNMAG
Sequence of human JAK1 (a.a. 837-1142) (P23458 849-1154): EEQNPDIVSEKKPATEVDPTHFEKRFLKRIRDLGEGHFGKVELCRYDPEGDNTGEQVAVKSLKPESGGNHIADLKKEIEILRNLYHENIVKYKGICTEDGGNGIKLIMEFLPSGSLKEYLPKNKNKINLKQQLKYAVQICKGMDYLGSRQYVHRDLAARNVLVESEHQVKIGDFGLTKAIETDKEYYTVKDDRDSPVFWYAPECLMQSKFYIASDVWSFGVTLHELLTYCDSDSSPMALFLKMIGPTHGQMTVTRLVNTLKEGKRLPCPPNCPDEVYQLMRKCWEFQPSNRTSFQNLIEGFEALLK

Row | Compound | IC50 [1] [nM] | IC50 (JAK2 (a.a. 828-1132)) [nM]
1 | N#CC[C@]1(n2cc(-c3ncnc4[nH]ccc34)cn2)C[C@H](N2CCN(C(=O)c3cc(CN4CCCC4)nc(C(F)(F)F)n3)CC2)C1 [Example 53, {trans-3-(4-{[6-(pyrrolidin-1-ylmethyl)-2-(trifluoromethyl)pyrimidin-4-yl]carbonyl}piperazin-1-yl)-1-[4-(7H-pyrrolo[2,3-d]pyrimidin-4-yl)-1H-pyrazol-1-yl]cyclobutyl}acetonitrile] | < 10 | 25 to 100
2 | N#CC[C@]1(n2cc(-c3ncnc4[nH]ccc34)cn2)C[C@H](N2CCN(C(=O)c3cc(CN)nc(C(F)(F)F)n3)CC2)C1 [Example 54, {trans-3-(4-{[6-(aminomethyl)-2-(trifluoromethyl)pyrimidin-4-yl]carbonyl}piperazin-1-yl)-1-[4-(7H-pyrrolo[2,3-d]pyrimidin-4-yl)-1H-pyrazol-1-yl]cyclobutyl}acetonitrile] | < 10 | 25 to 100
3 | CC(C)NCc1cc(C(=O)N2CCN([C@H]3C[C@](CC#N)(n4cc(-c5ncnc6[nH]ccc56)cn4)C3)CC2)nc(C(F)(F)F)n1 [Example 55, {trans-3-(4-{[6-[(isopropylamino)methyl]-2-(trifluoromethyl)pyrimidin-4-yl]carbonyl}piperazin-1-yl)-1-[4-(7H-pyrrolo[2,3-d]pyrimidin-4-yl)-1H-pyrazol-1-yl]cyclobutyl}acetonitrile] | < 10 | 25 to 100
4 | N#CC[C@]1(n2cc(-c3ncnc4[nH]ccc34)cn2)C[C@H](N2CCN(C(=O)c3cc(CNC4CCC4)nc(C(F)(F)F)n3)CC2)C1 [Example 56, {trans-3-(4-{[6-[(cyclobutylamino)methyl]-2-(trifluoromethyl)pyrimidin-4-yl]carbonyl}piperazin-1-yl)-1-[4-(7H-pyrrolo[2,3-d]pyrimidin-4-yl)-1H-pyrazol-1-yl]cyclobutyl}acetonitrile] | < 10 | 25 to 100
5 | CC(C)(C)NCc1cc(C(=O)N2CCN([C@H]3C[C@](CC#N)(n4cc(-c5ncnc6[nH]ccc56)cn4)C3)CC2)nc(C(F)(F)F)n1 [Example 57, {trans-3-(4-{[6-[(tert-butylamino)methyl]-2-(trifluoromethyl)pyrimidin-4-yl]carbonyl}piperazin-1-yl)-1-[4-(7H-pyrrolo[2,3-d]pyrimidin-4-yl)-1H-pyrazol-1-yl]cyclobutyl}acetonitrile] | < 10 | 10 to 25
6 | CC(C)(O)c1cc(C(=O)N2CCN([C@H]3C[C@](CC#N)(n4cc(-c5ncnc6[nH]ccc56)cn4)C3)CC2)nc(C(F)(F)F)n1 [Example 58, {trans-3-(4-{[6-(1-hydroxy-1-methylethyl)-2-(trifluoromethyl)pyrimidin-4-yl]carbonyl}piperazin-1-yl)-1-[4-(7H-pyrrolo[2,3-d]pyrimidin-4-yl)-1H-pyrazol-1-yl]cyclobutyl}acetonitrile] | < 10 | 10 to 25
7 | CC(C)(O)c1cc(C(=O)N2CCN([C@H]3C[C@@](CC#N)(n4cc(-c5ncnc6[nH]ccc56)cn4)C3)CC2)nc(C(F)(F)F)n1 [Example 59, {cis-3-(4-{[6-(1-hydroxy-1-methylethyl)-2-(trifluoromethyl)pyrimidin-4-yl]carbonyl}piperazin-1-yl)-1-[4-(7H-pyrrolo[2,3-d]pyrimidin-4-yl)-1H-pyrazol-1-yl]cyclobutyl}acetonitrile] | < 10 | 25 to 100
8 | COCc1cc(C(=O)N2CCN([C@H]3C[C@](CC#N)(n4cc(-c5ncnc6[nH]ccc56)cn4)C3)CC2)nc(C(F)(F)F)n1 [Example 60, {trans-3-(4-{[6-(methoxymethyl)-2-(trifluoromethyl)pyrimidin-4-yl]carbonyl}piperazin-1-yl)-1-[4-(7H-pyrrolo[2,3-d]pyrimidin-4-yl)-1H-pyrazol-1-yl]cyclobutyl}acetonitrile] | < 10 | 25 to 100
9 | N#CC[C@]1(n2cc(-c3ncnc4[nH]ccc34)cn2)C[C@H](N2CCN(C(=O)c3cc(C4(N)CCC4)nc(C(F)(F)F)n3)CC2)C1 [Example 61, {trans-3-(4-{[6-(1-aminocyclobutyl)-2-(trifluoromethyl)pyrimidin-4-yl]carbonyl}piperazin-1-yl)-1-[4-(7H-pyrrolo[2,3-d]pyrimidin-4-yl)-1H-pyrazol-1-yl]cyclobutyl}acetonitrile] | < 10 | < 10
10 | N#CC[C@]1(n2cc(-c3ncnc4[nH]ccc34)cn2)C[C@@H](N2CCN(C(=O)c3cc(C4(N)CCC4)nc(C(F)(F)F)n3)CC2)C1 [Example 62, {cis-3-(4-{[6-(1-aminocyclobutyl)-2-(trifluoromethyl)pyrimidin-4-yl]carbonyl}piperazin-1-yl)-1-[4-(7H-pyrrolo[2,3-d]pyrimidin-4-yl)-1H-pyrazol-1-yl]cyclobutyl}acetonitrile] | < 10 | < 10
11 | CN(C)C1(c2cc(C(=O)N3CCN([C@H]4C[C@](CC#N)(n5cc(-c6ncnc7[nH]ccc67)cn5)C4)CC3)nc(C(F)(F)F)n2)CCC1 [Example 63, {trans-3-(4-{[6-[1-(dimethylamino)cyclobutyl]-2-(trifluoromethyl)pyrimidin-4-yl]carbonyl}piperazin-1-yl)-1-[4-(7H-pyrrolo[2,3-d]pyrimidin-4-yl)-1H-pyrazol-1-yl]cyclobutyl}acetonitrile] | < 10 | 25 to 100
12 | CN(C)C1(c2cc(C(=O)N3CCN([C@H]4C[C@@](CC#N)(n5cc(-c6ncnc7[nH]ccc67)cn5)C4)CC3)nc(C(F)(F)F)n2)CCC1 [Example 64, {cis-3-(4-{[6-[1-(dimethylamino)cyclobutyl]-2-(trifluoromethyl)pyrimidin-4-yl]carbonyl}piperazin-1-yl)-1-[4-(7H-pyrrolo[2,3-d]pyrimidin-4-yl)-1H-pyrazol-1-yl]cyclobutyl}acetonitrile] | < 10 | 25 to 100
13 | CN(C)Cc1cc(C(=O)N2CCN([C@H]3C[C@](CC#N)(n4cc(-c5ncnc6[nH]ccc56)cn4)C3)CC2)nc(C(F)(F)F)c1 [Example 65, {trans-3-(4-{[4-[(dimethylamino)methyl]-6-(trifluoromethyl)pyridin-2-yl]carbonyl}piperazin-1-yl)-1-[4-(7H-pyrrolo[2,3-d]pyrimidin-4-yl)-1H-pyrazol-1-yl]cyclobutyl}acetonitrile] | < 10 | 25 to 100
14 | N#CC[C@]1(n2cc(-c3ncnc4[nH]ccc34)cn2)C[C@H](N2CCN(C(=O)c3cc(CO)cc(C(F)(F)F)n3)CC2)C1 [Example 66, {trans-3-(4-{[4-(hydroxymethyl)-6-(trifluoromethyl)pyridin-2-yl]carbonyl}piperazin-1-yl)-1-[4-(7H-pyrrolo[2,3-d]pyrimidin-4-yl)-1H-pyrazol-1-yl]cyclobutyl}acetonitrile] | < 10 | 25 to 100
15 | N#CC[C@]1(n2cc(-c3ncnc4[nH]ccc34)cn2)C[C@H](N2CCN(C(=O)c3cc(CN)cc(C(F)(F)F)n3)CC2)C1 [Example 67, {trans-3-(4-{[4-(aminomethyl)-6-(trifluoromethyl)pyridin-2-yl]carbonyl}piperazin-1-yl)-1-[4-(7H-pyrrolo[2,3-d]pyrimidin-4-yl)-1H-pyrazol-1-yl]cyclobutyl}acetonitrile] | < 10 | 25 to 100
16 | CNCc1cc(C(=O)N2CCN([C@H]3C[C@](CC#N)(n4cc(-c5ncnc6[nH]ccc56)cn4)C3)CC2)nc(C(F)(F)F)c1 [Example 68, {trans-3-(4-{[4-[(methylamino)methyl]-6-(trifluoromethyl)pyridin-2-yl]carbonyl}piperazin-1-yl)-1-[4-(7H-pyrrolo[2,3-d]pyrimidin-4-yl)-1H-pyrazol-1-yl]cyclobutyl}acetonitrile] | < 10 | 10 to 25
17 | COC(C)(C)c1cc(C(=O)N2CCN([C@H]3C[C@](CC#N)(n4cc(-c5ncnc6[nH]ccc56)cn4)C3)CC2)nc(C(F)(F)F)n1 [Example 69, {trans-3-(4-{[6-(1-methoxy-1-methylethyl)-2-(trifluoromethyl)pyrimidin-4-yl]carbonyl}piperazin-1-yl)-1-[4-(7H-pyrrolo[2,3-d]pyrimidin-4-yl)-1H-pyrazol-1-yl]cyclobutyl}acetonitrile] | < 10 | 25 to 100
18 | CNC1(c2cc(C(=O)N3CCN([C@H]4C[C@](CC#N)(n5cc(-c6ncnc7[nH]ccc67)cn5)C4)CC3)nc(C(F)(F)F)n2)CCC1 [Example 70, {trans-3-(4-{[6-[1-(methylamino)cyclobutyl]-2-(trifluoromethyl)pyrimidin-4-yl]carbonyl}piperazin-1-yl)-1-[4-(7H-pyrrolo[2,3-d]pyrimidin-4-yl)-1H-pyrazol-1-yl]cyclobutyl}acetonitrile] | < 10 | < 10
19 | N#CC[C@]1(n2cc(-c3ncnc4[nH]ccc34)cn2)C[C@H](N2CCN(C(=O)c3cc(C#N)cc(C(F)(F)F)n3)CC2)C1 [Example 71, 2-[(4-{trans-3-(cyanomethyl)-3-[4-(7H-pyrrolo[2,3-d]pyrimidin-4-yl)-1H-pyrazol-1-yl]cyclobutyl}piperazin-1-yl)carbonyl]-6-(trifluoromethyl)isonicotinonitrile] | < 10 | 25 to 100
20 | N#CC[C@]1(n2cc(-c3ncnc4[nH]ccc34)cn2)C[C@H](N2CCN(C(=O)c3cc(C4(O)CCC4)nc(C(F)(F)F)n3)CC2)C1 [Example 72, {trans-3-(4-{[6-(1-hydroxycyclobutyl)-2-(trifluoromethyl)pyrimidin-4-yl]carbonyl}piperazin-1-yl)-1-[4-(7H-pyrrolo[2,3-d]pyrimidin-4-yl)-1H-pyrazol-1-yl]cyclobutyl}acetonitrile] | < 10 | 10 to 25
